Reference: patent publication US20260022143A1, “Cyclic Peptide Inhibitors of IL-23” (JANSSEN PHARMACEUTICA NV, priority 2022, published 2026)
Starred links: 1 amine or outer side, 2 acyl side, 3 side chain; linkers in the order of their positions; H or OH if unused. Positions of bridges follow the written chain, without caps; N, C: chain ends. Non-standard residues stand in square brackets, D forms with d. Residues, ends and D or L forms follow the SMILES beside them. *: point of attachment. Trp(7-(3-AcNH-Ph)) = CC(=O)Nc1cccc(-c2cccc3c(C[C@H](N)C(=O)O)c[nH]c23)c1; Me3N+(CH2)2O(CH2)2O(CH2)2CO = C[N+](C)(C)CCOCCOCCC(=O)*; CH2CH2OCH2CH2OCH2CH2NMe3+ = C[N+](C)(C)CCOCCOCC*; Trp(7-Me) = Cc1cccc2c(C[C@H](N)C(=O)O)c[nH]c12; Hexanoyl(6-NMe3+) = C[N+](C)(C)CCCCCC(=O)*; Decanoyl(3,6,9-trioxa) = COCCOCCOCC(=O)*; 3Pal(5-Me) = Cc1cncc(C[C@H](N)C(=O)O)c1; Dab(NMeAc) = CC(=O)N(C)CC[C@H](N)C(=O)O; CH2CH2OCH2CH2NMe3+ = C[N+](C)(C)CCOCC*; 2Nal = N[C@@H](Cc1ccc2ccccc2c1)C(=O)O; AEF = NCCOc1ccc(C[C@H](N)C(=O)O)cc1; X24 = C[N+](C)(CCN[*:1])CC(=O)[*:2]; X77 = COCCN1CC[N+]2(CC1)CCN(CC*)CC2; 3Pal = N[C@@H](Cc1cccnc1)C(=O)O; Lys(Me) = CNCCCC[C@H](N)C(=O)O; Pen = CC(C)(S)[C@H](N)C(=O)O; Thp = NC1(C(=O)O)CCOCC1; Dap = NC[C@H](N)C(=O)O; X3 = C[N+](C)(C)CCCCC*; X61 = COCCOCCCNCC*; Sar = CNCC(=O)O

Assay: Exposed Polar Surface Area (EPSA)
Type: physicochemical
Conditions: SFC on Chirex 3014 column; sample 1 mM DMSO stock; read-out: EPSA
Procedure, shortened: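 EPSA, in Å^2, is read from SFC retention time through a linear relationship established with eight calibration standards. Separation uses a Chirex 3014 stationary phase, 35 °C, 14 MPa back pressure, and a 5–60% methanol/ammonium formate modifier gradient in CO2.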

SMILES	EPSA [A^2]
COCCN1CC[N+]2(CC1)CCN(CCOc1ccc(C[C@H](NC(=O)[C@H]3NC(=O)[C@H](CCCCN(C)C(C)=O)NC(=O)[C@H](Cc4c[nH]c5c(C)cccc45)NC(=O)[C@H]([C@@H](C)O)NC(=O)[C@H](CC(=O)N(C)C)NC(=O)[C@@H](NC(=O)CCOCCOCC[N+](C)(C)C)C(C)(C)SSC3(C)C)C(=O)N[C@@H](Cc3ccc4ccccc4c3)C(=O)NC3(C(=O)N[C@@H](CCCCN(C)C(C)=O)C(=O)N[C@@H](CC(N)=O)C(=O)N[C@@H](Cc4cccnc4)C(=O)N(C)CC(=O)N(C)C)CCOCC3)cc1)CC2 [compound 262, cPEG3aCO-Pen(3)-N(N(Me)2)-T-7MeW-K(NMeAc)-Pen(3)-MTASF-2Nal-THP-K(NMeAc)-N-3Pya-Sar-CON(Me)2] ({Me3N+(CH2)2O(CH2)2O(CH2)2CO}-[Pen]D(NMe2)T[Trp(7-Me)][Lys(Me)](Ac)[Pen]Y(X77)[2Nal][Thp][Lys(Me)](Ac)N[3Pal][Sar]-NMe2; disulfide 1-6)	145
COCCOCCOCC(=O)NCC[N+](C)(C)CC(=O)N[C@@H]1C(=O)N[C@@H](CC(=O)N(C)C)C(=O)N[C@@H]([C@@H](C)O)C(=O)N[C@@H](Cc2c[nH]c3c(C)cccc23)C(=O)N[C@@H](CCCCN(C)C(C)=O)C(=O)N[C@H](C(=O)N[C@@H](Cc2ccc(OCCOCCOCC[N+](C)(C)C)cc2)C(=O)N[C@@H](Cc2ccc3ccccc3c2)C(=O)NC2(C(=O)N[C@@H](CCN(C)C(C)=O)C(=O)N[C@@H](CC(N)=O)C(=O)N[C@@H](Cc3cccnc3)C(=O)N(C)CC(=O)N(C)C)CCOCC2)C(C)(C)SSC1(C)C [compound 197, mPEG3CO-SP6-Pen(3)-N(N(Me)2)-T-7MeW-K(NMeAc)-Pen(3)-APEG3F-2Nal-THP-Dab(NMeAc)-N-3Pya-Sar-CON(Me)2] ({Decanoyl(3,6,9-trioxa)}-[X24][Pen]D(NMe2)T[Trp(7-Me)][Lys(Me)](Ac)[Pen]Y(CH2CH2OCH2CH2OCH2CH2NMe3+)[2Nal][Thp][Dab(NMeAc)]N[3Pal][Sar]-NMe2; disulfide 2-7)	137
CC(=O)NCCCC[C@@H]1NC(=O)[C@H](Cc2c[nH]c3c(-c4cccc(NC(C)=O)c4)cccc23)NC(=O)[C@H]([C@@H](C)O)NC(=O)[C@H](CC(N)=O)NC(=O)[C@@H](NC(=O)[C@@H](CCCNC(=N)N)NC(=O)CCOCCOCC[N+](C)(C)C)C(C)(C)SSC(C)(C)[C@@H](C(=O)N[C@@H](Cc2ccc(OCCN)cc2)C(=O)N[C@@H](Cc2ccc3ccccc3c2)C(=O)NC2(C(=O)N[C@@H](CCC(=O)O)C(=O)N[C@@H](CC(N)=O)C(=O)N[C@@H](Cc3cncc(C)c3)C(=O)N(C)CC(N)=O)CCOCC2)NC1=O [compound 536, cPEG3aCO-r-Pen(3)-N-T-7(3NAcPh)W-K(Ac)-Pen(3)-AEF-2Nal-THP-E-N-5MePyridinAla-Sar-CONH2] ({Me3N+(CH2)2O(CH2)2O(CH2)2CO}-[dR][Pen]NT[Trp(7-(3-AcNH-Ph))]K(Ac)[Pen][AEF][2Nal][Thp]EN[3Pal(5-Me)][Sar]-NH2; disulfide 2-7)	210
CC(=O)N[C@@H]1C(=O)N[C@@H](COCCOCC[N+](C)(C)C)C(=O)N[C@@H]([C@@H](C)O)C(=O)N[C@@H](Cc2c[nH]c3c(C)cccc23)C(=O)N[C@@H](CCCCN(C)C(C)=O)C(=O)N[C@H](C(=O)N[C@@H](Cc2ccc(OCCOCCOCC[N+](C)(C)C)cc2)C(=O)N[C@@H](Cc2ccc3ccccc3c2)C(=O)NC2(C(=O)N[C@@H](CCCCN(C)C(C)=O)C(=O)N[C@@H](CC(N)=O)C(=O)N[C@@H](Cc3cccnc3)C(=O)N(C)CC(=O)N(C)C)CCOCC2)C(C)(C)SSC1(C)C [compound 365] (Ac-[Pen]S(CH2CH2OCH2CH2NMe3+)T[Trp(7-Me)][Lys(Me)](Ac)[Pen]Y(CH2CH2OCH2CH2OCH2CH2NMe3+)[2Nal][Thp][Lys(Me)](Ac)N[3Pal][Sar]-NMe2; disulfide 1-6)	150
CC(=O)NCCCC[C@@H]1NC(=O)[C@H](Cc2c[nH]c3c(C)cccc23)NC(=O)[C@H]([C@@H](C)O)NC(=O)[C@H](CC(N)=O)NC(=O)[C@@H](NC(C)=O)C(C)(C)SSC(C)(C)[C@@H](C(=O)N[C@@H](Cc2ccc(OCCN)cc2)C(=O)N[C@@H](Cc2ccc3ccccc3c2)C(=O)NC2(C(=O)N[C@@H](CCCCN(C)C(C)=O)C(=O)N[C@@H](CC(N)=O)C(=O)N[C@@H](Cc3cccnc3)C(=O)N(C)CC(N)=O)CCOCC2)NC1=O [compound 59] (Ac-[Pen]NT[Trp(7-Me)]K(Ac)[Pen][AEF][2Nal][Thp][Lys(Me)](Ac)N[3Pal][Sar]-NH2; disulfide 1-6 (inferred))	166
CC(=O)N(C)CCCC[C@H](NC(=O)C1(NC(=O)[C@H](Cc2ccc3ccccc3c2)NC(=O)[C@H](Cc2ccc(OCCCCC[N+](C)(C)C)cc2)NC(=O)[C@H]2NC(=O)[C@H](CCC(=O)N(C)C)NC(=O)[C@H](Cc3c[nH]c4c(C)cccc34)NC(=O)[C@H]([C@@H](C)O)NC(=O)[C@H](CC(=O)N(C)C)NC(=O)[C@@H](NC(=O)CCOCCOCC[N+](C)(C)C)C(C)(C)SSC2(C)C)CCOCC1)C(=O)N[C@@H](CC(N)=O)C(=O)N[C@@H](Cc1cccnc1)C(=O)N(C)CC(=O)N(C)C [compound 312, cPEG3aCO-Pen(3)-N(N(Me)2)-T-7MeW-Q(N(Me)2)-Pen(3)-TMAPF-2Nal-THP-K(NMeAC)-N-3Pya-Sar-CON(Me)2] ({Me3N+(CH2)2O(CH2)2O(CH2)2CO}-[Pen]D(NMe2)T[Trp(7-Me)]E(NMe2)[Pen]Y(X3)[2Nal][Thp][Lys(Me)](Ac)N[3Pal][Sar]-NMe2; disulfide 1-6)	151
COCCOCCCNCCOc1ccc(C[C@H](NC(=O)[C@H]2NC(=O)[C@H](CCCCNC(C)=O)NC(=O)[C@H](Cc3c[nH]c4c(C)cccc34)NC(=O)[C@H]([C@@H](C)O)NC(=O)[C@H](CC(N)=O)NC(=O)[C@@H](NC(=O)CCCCC[N+](C)(C)C)C(C)(C)SSC2(C)C)C(=O)N[C@@H](Cc2ccc3ccccc3c2)C(=O)NC2(C(=O)N[C@@H](CNC(C)=O)C(=O)N[C@@H](CC(N)=O)C(=O)N[C@@H](Cc3cccnc3)C(=O)N(C)CC(N)=O)CCOCC2)cc1 [compound 204] ({Hexanoyl(6-NMe3+)}-[Pen]NT[Trp(7-Me)]K(Ac)[Pen]Y(X61)[2Nal][Thp][Dap](Ac)N[3Pal][Sar]-NH2; disulfide 1-6)	153
CC(=O)N(C)CCCC[C@@H]1NC(=O)[C@H](Cc2c[nH]c3c(C)cccc23)NC(=O)[C@H]([C@@H](C)O)NC(=O)[C@H](CC(=O)N(C)C)NC(=O)[C@@H](NC(=O)CCOCCOCC[N+](C)(C)C)C(C)(C)SSC(C)(C)[C@@H](C(=O)N[C@@H](Cc2ccc(OCCN(CCOCC[N+](C)(C)C)CCOCC[N+](C)(C)C)cc2)C(=O)N[C@@H](Cc2ccc3ccccc3c2)C(=O)NC2(C(=O)N[C@@H](CCCCN(C)C(C)=O)C(=O)N[C@@H](CC(N)=O)C(=O)N[C@@H](Cc3cccnc3)C(=O)N(C)CC(=O)N(C)C)CCOCC2)NC1=O (relative stereo) [compound 266, cPEG3aCO-Pen(3)-N(N(Me)2)-T-7MeW-K(NMeAc)-Pen(3)-AEF(BisPEG2a)(S*)-2Nal-THP-K(NMeAc)-N-3Pya-Sar-CON(Me)2]	157
